This passage reports Ki results from patent US9447122B2, “Arginase inhibitors and methods of use thereof” (AstraZeneca AB, priority 2010, dated 2016).

Where two headings read alike, the source gives them in different places.

The target in test [1] is T1, human arginase I (Homo sapiens, UniProt P05089).
T1 sequence (P05089 1-322): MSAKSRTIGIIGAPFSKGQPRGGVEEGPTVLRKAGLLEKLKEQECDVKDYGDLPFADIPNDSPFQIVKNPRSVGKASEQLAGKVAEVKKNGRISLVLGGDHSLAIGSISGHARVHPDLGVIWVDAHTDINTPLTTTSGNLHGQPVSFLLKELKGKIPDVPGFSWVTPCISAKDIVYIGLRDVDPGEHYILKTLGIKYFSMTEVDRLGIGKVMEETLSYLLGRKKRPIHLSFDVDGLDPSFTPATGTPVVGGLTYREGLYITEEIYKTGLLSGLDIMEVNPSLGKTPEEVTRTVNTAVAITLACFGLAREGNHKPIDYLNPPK
The test can be described thus: Arginase inhibition, QuantiChrom colorimetric urea assay, IC50 converted to Ki. Type of test: biochemical. To be noted: Table 3. How it is done: (§1) For some compounds, their inhibitory potency at pH 7.5 was compared to the inhibitory potency of ABH at pH 7.5.
(§2) Quantitative determination of arginase activity was performed in a 96-well format by a colorimetric method using the QuantiChrom™ Arginase Assay Kit available from BioAssay Systems (Hayward, Calif., Catalog No. DARG-200) according to the manufacturer's protocol. Modifications were made to reagent quantities to suit the assaying of a highly purified sample.
(§3) The intensity of the color was directly proportional to the arginase activity in the sample.
(§4) The rate of urea production was measured in the presence of twelve different concentrations of each potential inhibitor compound. In a typical assay, seven different compounds were tested relative to a control inhibitor (e.g. ABH) against one enzyme (either human ArgI or human ArgII) at a particular pH (either 9.5 or 7.5). The pH of the solution was controlled using an appropriate pH buffering compound at 60 mM concentrations; for example, 60 mM glycine (pH 9.5) or 60 mM HEPES (pH 7.5). The half maximal inhibitory concentration (IC50) was determined by constructing a dose-response curve.

Test [2] addresses T2, human arginase II (Homo sapiens, UniProt P78540).
T2 sequence (P78540 23-354): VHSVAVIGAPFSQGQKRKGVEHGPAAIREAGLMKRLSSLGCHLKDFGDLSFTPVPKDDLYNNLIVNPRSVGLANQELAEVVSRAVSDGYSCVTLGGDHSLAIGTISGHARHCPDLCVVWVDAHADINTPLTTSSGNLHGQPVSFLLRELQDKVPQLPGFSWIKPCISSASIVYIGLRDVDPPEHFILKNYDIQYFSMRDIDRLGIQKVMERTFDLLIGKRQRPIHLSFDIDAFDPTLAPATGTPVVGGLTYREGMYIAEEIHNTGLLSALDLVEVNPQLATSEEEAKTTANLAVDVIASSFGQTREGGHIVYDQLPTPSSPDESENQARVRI
The description is as above. To be noted: Table 3. Type of test: biochemical. How it is done:
as §1, §2, §3, §4

Where [3] appears, read: pH 7.5, read-out: human Arginase I pH 7.5, Ki assigned value.
[4] abbreviates: pH 9.5, read-out: human Arginase I pH 9.5, Ki assigned value.
Setting [5] is: pH 7.5, read-out: human Arginase II pH 7.5, Ki assigned value.
The mark [6] stands for this setting: pH 9.5, read-out: human Arginase II pH 9.5, Ki assigned value.

What is called Ki is a measure of affinity in units of concentration, obtained from inhibition or displacement. Take `NC(CCCCB(O)O)(CCCN1CCC(NS(=O)(=O)c2ccc(Cl)c(Cl)c2)C1)C(=O)O` (centres unmarked) [Example 114]: the Ki is less than 10 nM in test [1] (setting [3]), 11 to 50 nM in test [1] (setting [4]), less than 10 nM in test [2] (setting [5]) and 11 to 50 nM in test [2] (setting [6]).

Regarding `NC(CCCCB(O)O)(CCCN1CCc2ccccc2C1)C(=O)O` (centres unmarked) [Example 45], the inhibition constant Ki in test [1] (setting [3]) is less than 10 nM; in test [1] (setting [4]), 11 to 50 nM; in test [2] (setting [5]), less than 10 nM; in test [2] (setting [6]) it was 11 to 50 nM.

On to `NC(CCCCB(O)O)(CCCCN1CCNCC1)C(=O)O` (centres unmarked) [Example 93], for which the Ki in test [1] (setting [3]) is 11 to 50 nM; in test [1] (setting [4]), 11 to 50 nM; in test [2] (setting [5]), more than 400 nM; in test [2] (setting [6]), 11 to 50 nM.

`NC(CCCCB(O)O)(CCCN1CCN(CCc2ccccc2)CC1)C(=O)O` (centres unmarked) [Example 14]: the Ki is less than 10 nM in test [1] (setting [3]), 11 to 50 nM in test [1] (setting [4]), less than 10 nM in test [2] (setting [5]) and 11 to 50 nM in test [2] (setting [6]).

Take `NC(CCCCB(O)O)(CCCN1CCCC1c1ccc(-c2ccccc2)cc1)C(=O)O` (centres unmarked) [Example 54]: the inhibition constant Ki in test [1] (setting [3]) is 11 to 50 nM; in test [1] (setting [4]), 11 to 50 nM; in test [2] (setting [5]) it was 11 to 50 nM; in test [2] (setting [6]) it was 51 to 100 nM.

`NC(CCCCB(O)O)(CCCN1CCC(Nc2ccccc2)CC1)C(=O)O` (centres unmarked) [Example 103]: the Ki is less than 10 nM in test [1] (setting [3]), 11 to 50 nM in test [1] (setting [4]), less than 10 nM in test [2] (setting [5]) and 11 to 50 nM in test [2] (setting [6]).

Regarding `NC(CCCCB(O)O)(CCCCN1CCN(c2ccc(Cl)c(Cl)c2)CC1)C(=O)O` (centres unmarked) [Example 94], the Ki is 11 to 50 nM in test [1] (setting [3]), 11 to 50 nM in test [1] (setting [4]), less than 10 nM in test [2] (setting [5]) and 11 to 50 nM in test [2] (setting [6]).

As for `NC(CCCCB(O)O)(CCCN1CC(c2ccccc2)C1)C(=O)O` (centres unmarked) [Example 58], the Ki is less than 10 nM in test [1] (setting [3]), 11 to 50 nM in test [1] (setting [4]), 11 to 50 nM in test [2] (setting [5]) and 11 to 50 nM in test [2] (setting [6]).

As to `NC(CCCCB(O)O)(CCCNCCc1ccccc1)C(=O)O` (centres unmarked) [Example 67], the Ki in test [1] (setting [3]), in test [1] (setting [4]), in test [2] (setting [5]) and in test [2] (setting [6]) was less than 10 nM in each case.

`NC(CCCCB(O)O)(CCCN1CCCC(c2ccccc2)C1)C(=O)O` (centres unmarked) [Example 26, 2-amino-6-borono-2-(3-(3-phenylpiperidin-1-yl)propyl)hexanoic acid]: the Ki in test [1] (setting [3]) was less than 10 nM; in test [1] (setting [4]), 11 to 50 nM; in test [2] (setting [5]) it was less than 10 nM; in test [2] (setting [6]), 11 to 50 nM.

With `NC(CCCCB(O)O)(CCCCN1CCc2ccccc2C1)C(=O)O` (centres unmarked) [Example 96], the Ki in test [1] (setting [3]), in test [1] (setting [4]), in test [2] (setting [5]) and in test [2] (setting [6]) was 11 to 50 nM throughout.

In the case of `NC(CCCCB(O)O)(CCCN1CCC1)C(=O)O` (centres unmarked) [Example 57], the Ki in test [1] (setting [3]) was less than 10 nM; in test [1] (setting [4]), 11 to 50 nM; in test [2] (setting [5]), 11 to 50 nM; in test [2] (setting [6]), 51 to 100 nM.

Consider `NC(CCCCB(O)O)(CCCN1CC(NC(=O)Nc2ccc(Cl)c(Cl)c2)C1)C(=O)O` (centres unmarked) [Example 60], for which the Ki in test [1] (setting [3]) was less than 10 nM; in test [1] (setting [4]) it was less than 10 nM; in test [2] (setting [5]), less than 10 nM; in test [2] (setting [6]), 11 to 50 nM.

With `NC(CCCCB(O)O)(CCCCN1CCC(Cc2ccc(F)c(F)c2)CC1)C(=O)O` (centres unmarked) [Example 95], the Ki in test [1] (setting [3]) is 51 to 100 nM; in test [1] (setting [4]), less than 10 nM; in test [2] (setting [5]) it was 11 to 50 nM; in test [2] (setting [6]), less than 10 nM.

Consider `CN(C)CCNCCCC(N)(CCCCB(O)O)C(=O)O` (centres unmarked) [Example 89], for which the Ki in test [1] (setting [3]) was less than 10 nM; in test [1] (setting [4]), less than 10 nM; in test [2] (setting [5]), less than 10 nM; in test [2] (setting [6]), 11 to 50 nM.

In the case of `COCCN(C)CCCC(N)(CCCCB(O)O)C(=O)O` (centres unmarked) [Example 85], the Ki in test [1] (setting [3]) lay within 11 to 50 nM; in test [1] (setting [4]), 11 to 50 nM; in test [2] (setting [5]), 11 to 50 nM; in test [2] (setting [6]), 101 to 250 nM.

As for `CN1CCN(CCCC(N)(CCCCB(O)O)C(=O)O)CC1` (centres unmarked) [Example 106], the Ki lay within 11 to 50 nM in test [1] (setting [3]), 11 to 50 nM in test [1] (setting [4]), 11 to 50 nM in test [2] (setting [5]) and 251 to 400 nM in test [2] (setting [6]).
